Counter-ions that a name gives are not always drawn.
Experiments:
[1] = system: bacterial strains that express the class D cephalosporinase OXA-15; assay: Standard BLI potentiation MIC / synergy MIC assays, strains expressing OXA-15; type: cell-based, E. coli; details: in combination with a β-lactam; comparator Avibactam (CCC)
Summary of the method: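 Broth microdilution in cation-adjusted Mueller Hinton broth per CLSI M07-A9, ~10^5 CFU/mL, 18-20 h at 37 °C with aeration; engineered E. coli carrying β-lactamase plasmids kept on 25 μg/mL tetracycline. β-lactam MIC measured in 2-fold dilutions (128-0.13 μg/mL) with BLI fixed at 4 μg/mL; sMIC titrates BLI against a fixed β-lactam concentration. MIC = lowest concentration without visible turbidity.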

[2] = system: bacterial strains that express KPC β-lactamases; assay: Standard BLI potentiation MIC / synergy MIC assays, strains expressing KPC β-lactamases; type: cell-based; details: in combination with a β-lactam; comparator Avibactam
Protocol: The experimental protocol was performed according to Clinical and Laboratory Standards Institute (CLSI) guidelines with modifications as described below (CLSI guidelines can be derived from the CLSI document M07-A9 published in January 2012: “Methods for Dilution Antimicrobial Susceptibility Tests for Bacteria That Grow Aerobically; Approved Standard-Ninth Edition”).
To prepare for MIC testing, frozen glycerol stocks of clinical isolates (Klebsiella pneumoniae, Eschericia coli, Enterobacter spp, Citrobacter spp, or Pseudomonas aeruginosa) were used to streak for isolated colonies on rich, non-selective, tryptic soy agar containing 5% sheep's blood (TSAB). Frozen glycerol stocks of laboratory engineered, isogenic E. coli strains, which contain cloned β-lactamase expressing plasmids were used to streak for isolated colonies on rich, selective LB agar supplemented with 25 μg/mL tetracycline to maintain the plasmid. All strains were incubated at 37° C. for 18-24 hrs.
On the day of testing, primary cultures were started by scraping off 5-10 colonies from the TSAB plates containing clinical strains or the tetracycline supplemented LB plates containing engineered strains. The clinical strain material was suspended in ˜5 mL of cation adjusted Mueller Hinton Broth (CAMHB) in 14 mL culture tubes. The engineered strain material was suspended in CAMHB (supplemented with 25 μg/mL tetracycline) in 14 mL culture tubes. All strains were incubated at 37° C. with aeration (200 rpm) for ˜2 hrs until the optical density at 600 nm (OD600) was >0.1.
The two compound components of the assay were each diluted in CAMHB and added to the 96-well broth microdilution assay plates. 50 μL of the β-lactam was added to each well of the assay plate in 2-fold dilutions with final concentrations ranging from 128 to 0.13 μg/mL. 25 μL of the BLI compound was added to all wells in the broth microdilution plates at a final concentration of 4 μg/mL. Inoculum cultures were prepared by standardizing the primary cultures to OD600=0.1 and then adding 20 μL of the adjusted primary culture per 1 mL CAMHB for clinical strains or CAMHB (supplemented with tetracycline at 100 μg/mL) for engineered strains, so that the final inoculum density was ˜10^5 colony forming units per milliliter. Diluted inoculum cultures were used to inoculate 25 μl, per well in 96-well broth microdilution assay plates. The final volume of each well was 100 μL and contained a β-lactam at different concentrations, a BLlcompound at 4 μg/mL concentration, the bacterial culture at an OD600 of approximately 0.001 and when necessary tetracycline at 25 μg/mL.
Plates were incubated for 18-20 hours at 37° C. with aeration (200 rpm). Following incubation, growth was confirmed visually placing plates over a viewing apparatus (stand with a mirror underneath) and then OD600 was measured using a SpectraMax 340PC384 plate reader (Molecular Devices, Sunnyvale, Calif.). Growth was defined as turbidity that could be detected with the naked eye or achieving minimum OD600 of 0.1. MIC values were defined as the lowest concentration producing no visible turbidity.
The synergy MIC (sMIC) assay determines the concentration of the BLI required to potentiate the activity of a fixed concentration of a β-lactam antibiotic against β-lactamase producing bacterial strains. The experimental protocol was performed according to Clinical and Laboratory Standards Institute (CLSI) guidelines with modifications as described below (CLSI guidelines can be derived from the CLSI document M07-A9 published in January 2012: “Methods for Dilution Antimicrobial Susceptibility Tests for Bacteria That Grow Aerobically; Approved Standard-Ninth Edition”). […]

Structure (SMILES)	activity against bacterial strains that express the class D cephalosporinase OXA-15, compared with Avibactam [1]	activity and/or spectrum of activity against bacterial strains that express KPC β-lactamases, compared with Avibactam [2]
O=C1N2C[C@@H](CC[C@H]2c2nnc(CCCCNC3CCNCC3)o2)N1OS(=O)(=O)O [Compound 772, (2S,5R)-7-oxo-2-(5-(4-(piperidin-4-ylamino)butyl)-1,3,4-oxadiazol-2-yl)-1,6-diazabicyclo[3.2.1]octan-6-yl hydrogen sulfate]	more active than Avibactam	more active than Avibactam for at least one, bacterial strain that expresses KPC β-lactamase and/or show a better spectrum of activity
O=C1N2C[C@@H](CC[C@H]2c2nnc([C@H]3[C@@H]4CNC[C@@H]43)o2)N1OS(=O)(=O)O [Compound 740, (2S,5R)-2-(5-(3-azabicyclo[3.1.0]hexan-6-yl)-1,3,4-oxadiazol-2-yl)-7-oxo-1,6-diazabicyclo[3.2.1]octan-6-yl hydrogen sulfate]	more active than Avibactam	more active than Avibactam for at least one, bacterial strain that expresses KPC β-lactamase and/or show a better spectrum of activity
O=C1N2C[C@@H](CC[C@H]2c2nnc(CCCC3CNC3)o2)N1OS(=O)(=O)O [Compound 743, (2S,5R)-2-(5-(3-(azetidin-3-yl)propyl)-1,3,4-oxadiazol-2-yl)-7-oxo-1,6-diazabicyclo[3.2.1]octan-6-yl hydrogen sulfate]	more active than Avibactam	more active than Avibactam for at least one, bacterial strain that expresses KPC β-lactamase and/or show a better spectrum of activity
NC1CC(NCc2nnc([C@@H]3CC[C@@H]4CN3C(=O)N4OS(=O)(=O)O)o2)C1 (stereo partly drawn) [Compound 755, (2S,5R)-2-(5-(((3-aminocyclobutyl)amino)methyl)-1,3,4-oxadiazol-2-yl)-7-oxo-1,6-diazabicyclo[3.2.1]octan-6-yl hydrogen sulfate]	more active than Avibactam	more active than Avibactam for at least one, bacterial strain that expresses KPC β-lactamase and/or show a better spectrum of activity
N=C(N)N1CC(Cc2nnc([C@@H]3CC[C@@H]4CN3C(=O)N4OS(=O)(=O)O)o2)C1 [Compound 741, (2S,5R)-2-(5-((1-carbamimidoylazetidin-3-yl)methyl)-1,3,4-oxadiazol-2-yl)-7-oxo-1,6-diazabicyclo[3.2.1]octan-6-yl hydrogen sulfate]	more active than Avibactam	more active than Avibactam for at least one, bacterial strain that expresses KPC β-lactamase and/or show a better spectrum of activity
O=C1N2C[C@@H](CC[C@H]2c2nnc(CCN3CCNCC3)o2)N1OS(=O)(=O)O [Compound 776, (2S,5R)-7-oxo-2-(5-(2-(piperazin-1-ybethyl)-1,3,4-oxadiazol-2-yl)-1,6-diazabicyclo[3.2.1]octan-6-yl hydrogen sulfate]	more active than Avibactam	more active than Avibactam for at least one, bacterial strain that expresses KPC β-lactamase and/or show a better spectrum of activity
O=C1N2C[C@@H](CC[C@H]2c2nnc(C3CC4(CNC4)C3)o2)N1OS(=O)(=O)O [Compound 750, (2S,5R)-2-(5-(2-azaspiro[3.3]heptan-6-yl)-1,3,4-oxadiazol-2-yl)-7-oxo-1,6-diazabicyclo[3.2.1]octan-6-yl hydrogen sulfate]	more active than Avibactam	more active than Avibactam for at least one, bacterial strain that expresses KPC β-lactamase and/or show a better spectrum of activity
N=C(N)NC1(Cc2nnc([C@@H]3CC[C@@H]4CN3C(=O)N4OS(=O)(=O)O)o2)CC1 [Compound 739, (2S,5R)-2-(5-((1-guanidinocyclopropyl)methyl)-1,3,4-oxadiazol-2-yl)-7-oxo-1,6-diazabicyclo[3.2.1]octan-6-yl hydrogen sulfate]	more active than Avibactam	more active than Avibactam for at least one, bacterial strain that expresses KPC β-lactamase and/or show a better spectrum of activity
N[C@@H]1CN[C@H](c2nnc([C@@H]3CC[C@@H]4CN3C(=O)N4OS(=O)(=O)O)o2)C1 [Compound 760, (2S,5R)-2-(5-((2S,4S)-4-aminopyrrolidin-2-yl)-1,3,4-oxadiazol-2-yl)-7-oxo-1,6-diazabicyclo[3.2.1]octan-6-yl hydrogen sulfate]	more active than Avibactam	more active than Avibactam for at least one, bacterial strain that expresses KPC β-lactamase and/or show a better spectrum of activity
NCCc1nnc([C@@H]2CC[C@@H]3CN2C(=O)N3OS(=O)(=O)O)o1 [Compound 703, (2S,5R)-2-(5-(2-aminoethyl)-1,3,4-oxadiazol-2-yl)-7-oxo-1,6-diazabicyclo[3.2.1]octan-6-yl hydrogen sulfate]	more active than Avibactam	more active than Avibactam for at least one, bacterial strain that expresses KPC β-lactamase and/or show a better spectrum of activity
O=C1N2C[C@@H](CC[C@H]2c2nnc(CN3CCNCC3)o2)N1OS(=O)(=O)O [Compound 777, (2S,5R)-7-oxo-2-(5-(piperazin-1-ylmethyl)-1,3,4-oxadiazol-2-yl)-1,6-diazabicyclo[3.2.1]octan-6-yl hydrogen sulfate]	more active than Avibactam	more active than Avibactam for at least one, bacterial strain that expresses KPC β-lactamase and/or show a better spectrum of activity
O=C1N2C[C@@H](CC[C@H]2c2nnc(CN[C@H]3CCNC3)o2)N1OS(=O)(=O)O [Compound 765, (2S,5R)-7-oxo-2-(5-(((S)-pyrrolidin-3-ylamino)methyl)-1,3,4-oxadiazol-2-yl)-1,6-diazabicyclo[3.2.1]octan-6-yl hydrogen sulfate]	more active than Avibactam	more active than Avibactam for at least one, bacterial strain that expresses KPC β-lactamase and/or show a better spectrum of activity
N[C@H]1CN[C@@H](c2nnc([C@@H]3CC[C@@H]4CN3C(=O)N4OS(=O)(=O)O)o2)C1 [Compound 761, (2S,5R)-2-(5-((2R,4R)-4-aminopyrrolidin-2-yl)-1,3,4-oxadiazol-2-yl)-7-oxo-1,6-diazabicyclo[3.2.1]octan-6-yl hydrogen sulfate]	more active than Avibactam	more active than Avibactam for at least one, bacterial strain that expresses KPC β-lactamase and/or show a better spectrum of activity
